Experimental data published in ChEMBL document CHEMBL1938263, “Design, synthesis, biological evaluation, and comparative Cox1 and Cox2 docking of p-substituted benzylidenamino phenyl esters of ibuprofenic and mefenamic acids” (Bioorg Med Chem, 2012).

How the values were obtained:
Rattus norvegicus [1] = test: Antiinflammatory activity in Wistar CF rat assessed as inhibition of carrageenan-induced paw oedema at 100 mg/kg, po administered 1 hr prior to carrageenan-challenge after 4 hrs (reference value: 78.14 +/- 7.1 %); assay type: functional
Mus musculus [2] = test: Analgesic activity in mouse assessed as latency time of jumping as nociceptive response at 250 mg/kg, po after 0.5 hrs by hot plate test (reference value: 11.16 +/- 1.66 sec); assay type: functional
Mus musculus [3] = test: Analgesic activity in mouse assessed as latency time of jumping as nociceptive response at 250 mg/kg, po after 1 hr by hot plate test (reference value: 14.3 +/- 0.99 sec); assay type: functional
Mus musculus [4] = test: Analgesic activity in mouse assessed as latency time of jumping as nociceptive response at 250 mg/kg, po after 1.5 hrs by hot plate test (reference value: 16.8 +/- 2.12 sec); assay type: functional
Rattus norvegicus [5] = test: Ulcerogenic activity in fasted Wistar albino rat assessed as ulcer index at 100 mg/kg, po after 5 hrs; assay type: toxicity, organism-based; set-up: dose 100 mg/kg, route oral; settings: in vivo
Rattus norvegicus [6] = test: Ulcerogenic activity in fasted Wistar albino rat assessed as severity of ulcer at 100 mg/kg, po after 5 hrs; assay type: toxicity, organism-based; set-up: dose 100 mg/kg, route oral; settings: in vivo
Mus musculus [7] = test: Analgesic activity in mouse assessed as latency time of paw licking as nociceptive response at 250 mg/kg, po after 0.5 hrs by hot plate test (reference value: 11.16 +/- 1.66 sec); assay type: functional
Mus musculus [8] = test: Analgesic activity in mouse assessed as latency time of paw licking as nociceptive response at 250 mg/kg, po after 1 hr by hot plate test (reference value: 14.3 +/- 0.99 sec); assay type: functional
Mus musculus [9] = test: Analgesic activity in mouse assessed as latency time of paw licking as nociceptive response at 250 mg/kg, po after 1.5 hrs by hot plate test (reference value: 16.8 +/- 2.12 sec); assay type: functional
Rattus norvegicus [10] = test: Antiinflammatory activity in Wistar CF rat assessed as inhibition of carrageenan-induced paw oedema at 100 mg/kg, po administered 1 hr prior to carrageenan-challenge after 1 hr (reference value: 55.7 +/- […] %); assay type: functional
Rattus norvegicus [11] = test: Antiinflammatory activity in Wistar CF rat assessed as inhibition of carrageenan-induced paw oedema at 100 mg/kg, po administered 1 hr prior to carrageenan-challenge after 2 hrs (reference value: 68.6 +/- 7.14 %); assay type: functional
Rattus norvegicus [12] = test: Antiinflammatory activity in Wistar CF rat assessed as inhibition of carrageenan-induced paw oedema at 100 mg/kg, po administered 1 hr prior to carrageenan-challenge after 3 hrs (reference value: 74.63 +/- 7.13 %); assay type: functional

COc1ccc(/C=N/c2ccc(OC(=O)C(C)c3ccc(CC(C)C)cc3)cc2)cc1 (stereo not drawn)
inhibition in vivo at 100 mg/kg (Rattus norvegicus [1]): 64.7% | Time (Mus musculus [2]): 20.18 s | Time (Mus musculus [3]): 35.14 s | Time (Mus musculus [4]): 28.1 s | UI (Rattus norvegicus [5]): 0 | Activity (Rattus norvegicus [6]): Non-toxic | Time (Mus musculus [7]): 20.18 s | Time (Mus musculus [8]): 35.14 s | Time (Mus musculus [9]): 28.1 s | inhibition in vivo at 100 mg/kg (Rattus norvegicus [10]): 54% | inhibition in vivo at 100 mg/kg (Rattus norvegicus [11]): 56.2% | inhibition in vivo at 100 mg/kg (Rattus norvegicus [12]): 61.2%

CC(C)Cc1ccc(C(C)C(=O)Oc2ccc(/N=C/c3ccc([N+](=O)[O-])cc3)cc2)cc1 (stereo not drawn)
inhibition in vivo at 100 mg/kg (Rattus norvegicus [1]): 53.8% | Time (Mus musculus [2]): 23.52 s | Time (Mus musculus [3]): 34.62 s | Time (Mus musculus [4]): 24.98 s | UI (Rattus norvegicus [5]): 0 | Activity (Rattus norvegicus [6]): Non-toxic | Time (Mus musculus [7]): 23.52 s | Time (Mus musculus [8]): 34.62 s | Time (Mus musculus [9]): 24.98 s | inhibition in vivo at 100 mg/kg (Rattus norvegicus [10]): 29.9% | inhibition in vivo at 100 mg/kg (Rattus norvegicus [11]): 44.4% | inhibition in vivo at 100 mg/kg (Rattus norvegicus [12]): 50.3%

CC(C)Cc1ccc(C(C)C(=O)Oc2ccc(/N=C/c3ccc(N(C)C)cc3)cc2)cc1 (stereo not drawn)
inhibition in vivo at 100 mg/kg (Rattus norvegicus [1]): 107% | Time (Mus musculus [2]): 22.22 s | Time (Mus musculus [3]): 32.14 s | Time (Mus musculus [4]): 23 s | UI (Rattus norvegicus [5]): 0 | Activity (Rattus norvegicus [6]): Non-toxic | Time (Mus musculus [7]): 22.22 s | Time (Mus musculus [8]): 32.14 s | Time (Mus musculus [9]): 23 s | inhibition in vivo at 100 mg/kg (Rattus norvegicus [10]): 71.7% | inhibition in vivo at 100 mg/kg (Rattus norvegicus [11]): 96.1% | inhibition in vivo at 100 mg/kg (Rattus norvegicus [12]): 104%

CC(C)Cc1ccc(C(C)C(=O)Oc2ccc(/N=C/c3ccc(Br)cc3)cc2)cc1 (stereo not drawn)
inhibition in vivo at 100 mg/kg (Rattus norvegicus [1]): 49.3% | Time (Mus musculus [2]): 19.62 s | Time (Mus musculus [3]): 33.44 s | Time (Mus musculus [4]): 26.12 s | UI (Rattus norvegicus [5]): 0 | Activity (Rattus norvegicus [6]): Non-toxic | Time (Mus musculus [7]): 19.62 s | Time (Mus musculus [8]): 33.44 s | Time (Mus musculus [9]): 26.12 s | inhibition in vivo at 100 mg/kg (Rattus norvegicus [10]): 36.5% | inhibition in vivo at 100 mg/kg (Rattus norvegicus [11]): 40.6% | inhibition in vivo at 100 mg/kg (Rattus norvegicus [12]): 44.7%

COc1ccc(/C=N/c2ccc(OC(=O)c3ccccc3Nc3cccc(C)c3C)cc2)cc1
inhibition in vivo at 100 mg/kg (Rattus norvegicus [1]): 62.1% | Time (Mus musculus [2]): 21.68 s | Time (Mus musculus [3]): 25.08 s | Time (Mus musculus [4]): 18.46 s | UI (Rattus norvegicus [5]): 0 | Activity (Rattus norvegicus [6]): Non-toxic | Time (Mus musculus [7]): 21.68 s | Time (Mus musculus [8]): 25.08 s | Time (Mus musculus [9]): 18.46 s | inhibition in vivo at 100 mg/kg (Rattus norvegicus [10]): 35.2% | inhibition in vivo at 100 mg/kg (Rattus norvegicus [11]): 49.4% | inhibition in vivo at 100 mg/kg (Rattus norvegicus [12]): 57%

Cc1cccc(Nc2ccccc2C(=O)Oc2ccc(/N=C/c3ccc([N+](=O)[O-])cc3)cc2)c1C
inhibition in vivo at 100 mg/kg (Rattus norvegicus [1]): 52.5% | Time (Mus musculus [2]): 18.04 s | Time (Mus musculus [3]): 25.98 s | Time (Mus musculus [4]): 20.82 s | UI (Rattus norvegicus [5]): 0 | Activity (Rattus norvegicus [6]): Non-toxic | Time (Mus musculus [7]): 18.04 s | Time (Mus musculus [8]): 25.98 s | Time (Mus musculus [9]): 20.82 s | inhibition in vivo at 100 mg/kg (Rattus norvegicus [10]): 36.9% | inhibition in vivo at 100 mg/kg (Rattus norvegicus [11]): 41.1% | inhibition in vivo at 100 mg/kg (Rattus norvegicus [12]): 43.8%

Cc1cccc(Nc2ccccc2C(=O)Oc2ccc(/N=C/c3ccc(N(C)C)cc3)cc2)c1C
inhibition in vivo at 100 mg/kg (Rattus norvegicus [1]): 63.5% | Time (Mus musculus [2]): 23.16 s | Time (Mus musculus [3]): 24.4 s | Time (Mus musculus [4]): 15.96 s | UI (Rattus norvegicus [5]): 0 | Activity (Rattus norvegicus [6]): Non-toxic | Time (Mus musculus [7]): 23.16 s | Time (Mus musculus [8]): 24.4 s | Time (Mus musculus [9]): 15.96 s | inhibition in vivo at 100 mg/kg (Rattus norvegicus [10]): 41.6% | inhibition in vivo at 100 mg/kg (Rattus norvegicus [11]): 45.6% | inhibition in vivo at 100 mg/kg (Rattus norvegicus [12]): 53.4%

Cc1cccc(Nc2ccccc2C(=O)Oc2ccc(/N=C/c3ccc(Br)cc3)cc2)c1C
inhibition in vivo at 100 mg/kg (Rattus norvegicus [1]): 51.7% | Time (Mus musculus [2]): 20.72 s | Time (Mus musculus [3]): 21.22 s | Time (Mus musculus [4]): 19.38 s | UI (Rattus norvegicus [5]): 0 | Activity (Rattus norvegicus [6]): Non-toxic | Time (Mus musculus [7]): 20.72 s | Time (Mus musculus [8]): 21.22 s | Time (Mus musculus [9]): 19.38 s | inhibition in vivo at 100 mg/kg (Rattus norvegicus [10]): 32% | inhibition in vivo at 100 mg/kg (Rattus norvegicus [11]): 38.5% | inhibition in vivo at 100 mg/kg (Rattus norvegicus [12]): 46.5%

CC(C)Cc1ccc(C(C)C(=O)O)cc1 (racemic) [IBUPROFEN]
inhibition in vivo at 100 mg/kg (Rattus norvegicus [1]): 44% | Time (Mus musculus [2]): 17.84 s | Time (Mus musculus [3]): 16.1 s | Time (Mus musculus [4]): 19 s | UI (Rattus norvegicus [5]): 4.03 | Activity (Rattus norvegicus [6]): Toxic | Time (Mus musculus [7]): 17.84 s | Time (Mus musculus [8]): 16.1 s | Time (Mus musculus [9]): 19 s | inhibition in vivo at 100 mg/kg (Rattus norvegicus [10]): 30% | inhibition in vivo at 100 mg/kg (Rattus norvegicus [11]): 36.2% | inhibition in vivo at 100 mg/kg (Rattus norvegicus [12]): 41.8%
